This assay has as its target human Pim-1 (Homo sapiens (Human), UniProt P11309). Description: biochemical. The conditions noted are these: Ki converted from IC50, purified human Pim-1, Pim2tide substrate, ADP-Glo. In kind it is biochemical. The protocol: The human Pim-1 inhibitory activity of the test compounds was evaluated as follows.
(1) Purification of Human Pim-1
DNA fragment in which a His-Tag sequence and a translation termination sequence are added to the 3′-end of human Pim-1 translation sequence was amplified by PCR (Polymerase Chain Reaction), using human Pim-1 gene-inserted plasmid DNA (Kazusa DNA Laboratory, model number FXC11400) as a template. The amplified DNA fragment was fused with pGEx-6P-1 (GE Healthcare Japan, model number 27-4597-1) digested with BamHI and EcoRI using In-Fusion HD Cloning Kit (Takara Bio, model number 639649). […] The base sequence of Pim-1 cloned into vector was determined by Dye Terminator method using BigDye Terminator v3.1 Cycle Sequencing Kit (Applied Biosystems, model number 4337456). […] Escherichia coli BL21 (DE3) (Merck KGaA, model number 69449-4) transformed with human Pim-1-expressed plasmid DNA was cultured in 2×YT medium (Becton Dickinson, model number 2404020) at 30° C., until the optical concentration at 620 nm (OD620) reached 0.6, and then cultured overnight at 20° C. in the presence of 0.5 mmol/L isopropyl b-D-1-thiogalactopyranoside. After the completion of so the culture, the cells were collected and suspended in Homogenate Buffer (50 mmol/L Tris-HCl (pH 7.5), 500 mmol/L NaCl, 1% Tween20, complete, EDTA-free (Roche, model number 1873580)), and the suspended cells were lysed by passing through a microfluidizer M-110H (Mizuho Kogyo Co., Ltd.). The lysate was centrifuged at 10,100×g for 10 minutes, 4° C., and the supernatant was filtered through MILLEX-HV Filter (0.45 μm) (Millipore, SLHV033RS) to remove the cell residues. The filtrate was loaded onto complete His-Tag Purification Resin (Roche Diagnostics, model number 05 893 682 0.01). The column was washed with Equilibration Buffer-1 (50 mmol/L Tris-HCl (pH 7.5), 500 mmol/L NaCl, 1% Tween 20) containing 5 mmol/L Imidazole, followed by Equilibration Buffer-1 containing 50 mmol/L Imidazole, the human Pim-1 to which GST-Tag derived from pGEx-6P-1 was eluted with Equilibration Buffer-1 containing 150 mmol/L imidazole. […] The protease reaction was carried out by stirring overnight at 4° C., and the human Pim-1 in which the GST-Tag sequence was cleaved was eluted. The eluate was loaded onto a gel filtration column (Superdex-200 […] (GE Healthcare, model number 17-5175-01)) equilibrated with Equilibration Buffer-3 (50 mmol/L Tris-HCl (pH 7.5), 500 mmol/L NaCl, 0.05% Tween20, 0.5 mmol/L EDTA, 2 mmol/L DTT, 10% Glycerol), and eluted. The eluate was used as a human Pim-1 purified fraction.
The protein concentration of the human Pim-1 purified fraction was measured with Pierce 660 nm Protein Assay Reagent (Thermo Fisher Scientific, model number 22660). The purified fraction was rapidly frozen in liquid nitrogen, and then stored at −80° C. The His-Tag-added human Pim-1 was detected by Western blotting using a mouse anti-His monoclonal antibody (WAKO, model number 011-23091).
(2) Evaluation of Human Pim-1 Inhibitory Activity
The calculation of the Pim-1 inhibitory activity of the compound was performed using the following solution according to the protocol attached to ADP-Glo Kinase Assay (cat. V9102, Promega). The purified enzyme of human Pim-1 described above was used.
(i) Preparation of Solution
The kinase buffer solution (50 mmol/L HEPES (pH 7.5), 5 mmol/L MgCl2, 1 mmol/L DTT, 0.05% BSA) was prepared by dissolving HEPES (Jena Bioscience), MgCl2 (Sigma-Aldrich), DTT (Sigma-Aldrich) and BSA (Sigma-Aldrich) in purified water.
The ATP solution (288 μmol/L) was prepared by dissolving 100 mmol/L ATP (Promega) in the kinase buffer solution.
(In general: ADP-Glo turns the ADP formed in a reaction into a luminescent signal.)

Experimental findings from patent US11643417B2, “Tetrahydrobenzofurodiazepinone compound and pharmaceutical use thereof” (priority 2020, dated 2023) are described below.

Like-named read-outs stand apart in the source and are kept apart here.

human Pim-1, sequence (P11309 whole entry): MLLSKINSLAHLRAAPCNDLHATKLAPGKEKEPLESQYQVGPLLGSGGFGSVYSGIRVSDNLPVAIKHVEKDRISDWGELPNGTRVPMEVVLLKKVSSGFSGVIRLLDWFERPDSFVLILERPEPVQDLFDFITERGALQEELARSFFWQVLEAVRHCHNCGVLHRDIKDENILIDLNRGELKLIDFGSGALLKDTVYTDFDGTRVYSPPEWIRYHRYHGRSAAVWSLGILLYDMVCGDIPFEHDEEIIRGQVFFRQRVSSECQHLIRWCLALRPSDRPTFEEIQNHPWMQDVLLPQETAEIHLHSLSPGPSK

One may read the Ki as a measure of affinity in units of concentration, obtained from inhibition or displacement. For the compound `O=C1NCCN(CCC2CCC(O)(C(=O)O)CC2)c2c1oc1ccc(C(F)(F)F)cc21` (stereo not shown) [Example 102], under “read-out: hPim1 Ki”, the inhibitory constant (Ki) was determined as 5.47 nM.
Take `O=C1NCCN(CC(F)(F)C2CC(CO)CCO2)c2c1oc1ccc(C(F)(F)F)cc21` (single isomer, unassigned) [Example 14]: for the setting “hPim1 Ki (nM)”, the affinity corresponds to a Ki of 0.0334 nM.
On to `O=C1NCCN(CC(F)(F)C2CC(CO)CCO2)c2c1oc1ccc(C(F)(F)F)cc21` (stereo not shown) [Example 47], for which the inhibition constant Ki (read-out: hPim1 Ki) is 0.0246 nM.
`[2H]C1(O)CCC(CCN2CCNC(=O)c3oc4ccc(C(F)(F)F)cc4c32)CC1` (relative stereo) [Example 91] displayed an inhibitory constant (Ki) (hPim1 Ki (nM)) of 0.198 nM.
Regarding `O=C1NCCN(CCC2COCC(CO)O2)c2c1oc1ccc(C(F)(F)F)cc21` (racemic) [Example 132], where the note is “read-out: hPim1 Ki”, the Ki is 3.59 nM.
Same read-out and setting: the same measure for `CC1(O)CCC(C(F)(F)CN2CCNC(=O)c3oc4ccc(C(F)(F)F)cc4c32)CC1` (single isomer, unassigned) [Example 147]: 0.213 nM.
Still for that read-out and setting: the same measure for `CN1CCN(CC(F)(F)C2CC(O)(CO)CCO2)c2c(oc3ccc(C(F)(F)F)cc23)C1=O` (stereo not shown) [Example 21]: 0.33 nM.
For the compound `CC1(O)CCOC(C(F)(F)CN2CCNC(=O)c3oc4ccc(C(F)(F)F)cc4c32)C1` (racemic) [Example 11, 1-(2,2-difluoro-2-(4-hydroxy-4-methyltetrahydro-2H-pyran-2-yl)ethyl)-9-(trifluoromethyl)-1,2,3,4-tetrahydro-5H-benzofuro[3,2-e][1,4]diazepin-5-one], the inhibitory constant (Ki) (hPim1 Ki (nM)) is 0.0596 nM.
For `COCC1(O)CCC(CCN2CCNC(=O)c3oc4ccc(C(F)(F)F)cc4c32)CC1` (stereo not shown) [Example 112], the Ki (read-out: hPim1 Ki) is 1.03 nM.
Regarding `CC1(O)CCC(CCN2CC3(CC3)NC(=O)c3oc4ccc(C(F)(F)F)cc4c32)CC1` (single isomer, unassigned) [Example 127], the inhibitory constant (Ki) (read-out: hPim1 Ki) came out at 0.0532 nM.
On the same count and under the same terms, to `CC1(O)CCOC(C(F)(F)CN2CCNC(=O)c3oc4ccc(C(F)(F)F)cc4c32)C1` (stereo not shown) [Example 67, 1-(2,2-difluoro-2-(4-hydroxy-4-methyltetrahydro-2H-pyran-2-yl)ethyl)-9-(trifluoromethyl)-1,2,3,4-tetrahydro-5H-benzofuro[3,2-e][1,4]diazepin-5-one] belongs 0.242 nM; to `O=C1NC2(CC2)CN(CC[C@H]2CO[C@H](CO)CO2)c2c1oc1ccc(C(F)(F)F)cc21` [Example 155], 0.221 nM.
The same measure, in the same setting: the same measure for `O=C1NCCN(CC(F)(F)C2CC3(CCO2)OCCO3)c2c1oc1ccc(C(F)(F)F)cc21` (racemic) [Example 46]: 0.0715 nM; for `O=C1NCCN(CC(F)(F)C2CCC(O)CC2)c2c1oc1ccc(C(F)(F)F)cc21` (stereo not shown) [Example 107, 1-(2,2-difluoro-2-(4-hydroxycyclohexyl)ethyl)-9-(trifluoromethyl)-1,2,3,4-tetrahydro-5H-benzofuro[3,2-e] [1,4]diazepin-5-one]: 0.0862 nM.
For `COC(C1CC(O)(CO)C1)C1(CN2CCNC(=O)c3oc4ccc(C(F)(F)F)cc4c32)CC1` (racemic) [Example 23], under “read-out: hPim1 Ki”, the Ki worked out at 0.805 nM.
On to `O=C1NCCN(CC(F)(F)C2COCCO2)c2c1oc1ccc(C(F)(F)F)cc21` (single isomer, unassigned) [Example 70], for which the inhibition constant Ki (read-out: hPim1 Ki) was 0.0734 nM.
Turning to `O=C1NCCN(CC(F)(F)C2COCCO2)c2c1oc1ccc(C(F)(F)F)cc21` (racemic) [Example 56], for the setting “hPim1 Ki (nM)”, the affinity corresponds to a Ki of 0.0723 nM.
As to `CC(C)(O)C1CCC(CCN2CCNC(=O)c3oc4ccc(C(F)(F)F)cc4c32)CC1` (stereo not shown) [Example 98], where the note is “read-out: hPim1 Ki”, the Ki was determined as 1.07 nM.
On the same count and under the same terms, to `N#CC[C@H]1CO[C@@H](CCN2CCNC(=O)c3oc4ccc(C(F)(F)F)cc4c32)CO1` (racemic) [Example 142] belongs 4.4 nM.
In turn, `[2H]C1(O)CCC(CCN2CCNC(=O)c3oc4ccc(C(F)(F)F)cc4c32)CC1` (stereo not shown) [Example 92] showed a Ki (hPim1 Ki (nM)) of 0.707 nM.
`O=C1NCCN(CC(F)(F)C2CC(OC(F)F)CCO2)c2c1oc1ccc(C(F)(F)F)cc21` (stereo not shown) [Example 54]: where the note is “read-out: hPim1 Ki”, the Ki is 0.133 nM.
Same read-out and setting: the same measure for `CC1(C)OC[C@]2(CC[C@H](CCN3CCNC(=O)c4oc5ccc(C(F)(F)F)cc5c43)CC2)O1` [Example 2-01]: 1.6 nM; for `O=C1NCCN(CCC2CC3(COC3)C2)c2c1oc1ccc(C(F)(F)F)cc21` [Example 82]: 2.06 nM; for `O=C1NCCN(CCC2COCCO2)c2c1oc1c(F)cc(C(F)(F)F)cc21` (racemic) [Example 76]: 0.399 nM.
The same measure, in the same setting: to `CC1COCC(CCN2CCNC(=O)c3oc4ccc(C(F)(F)F)cc4c32)O1` (racemic) [Example 114] belongs 0.708 nM.
Same read-out and setting: to `O=C1CCC(CCN2CCNC(=O)c3oc4ccc(C(F)(F)F)cc4c32)CC1` [Example 75] belongs 1.62 nM; to `O=C1NCCN(CCC2CCS(=O)(=O)CC2)c2c1oc1ccc(C(F)(F)F)cc21` [Example 87], 1.97 nM; to `O=C1NCCN(CCC2CCC(c3ncn[nH]3)CC2)c2c1oc1ccc(C(F)(F)F)cc21` (stereo not shown) [Example 105], 0.607 nM.
`O=C1NCCN(CCC2CC(CO)C2)c2c1oc1ccc(C(F)(F)F)cc21` (stereo not shown) [Example 117]: the inhibitory constant (Ki) (read-out: hPim1 Ki) worked out at 0.801 nM.
Take `O=C1NCCN(CC(F)(F)C2CC(O)(CO)CCO2)c2c1oc1ccc(C(F)(F)F)cc21` (stereo not shown) [Example 13]: the inhibition constant Ki (read-out: hPim1 Ki) is 0.021 nM.
Still for that read-out and setting: to `CS(=O)(=O)CC1COCC(CCN2CCNC(=O)c3oc4ccc(C(F)(F)F)cc4c32)O1` (racemic) [Example 136] belongs 16 nM; to `O=C1NC2(CC2)CN(CC[C@@H]2CO[C@H](CF)CO2)c2c1oc1ccc(C(F)(F)F)cc21` [Example 156], 0.0103 nM.
The same measure, in the same setting: the same measure for `O=C1NCCN(CC(F)(F)[C@H]2CO[C@H](CO)CO2)c2c1oc1ccc(C(F)(F)F)cc21` [Example 95, 1-(2,2-difluoro-2-((2R,5R)-5-(hydroxymethyl)-1,4-dioxan-2-yl)ethyl)-9-(trifluoromethyl)-1,2,3,4-tetrahydro-5H-benzofuro[3,2-e][1,4]diazepin-5-one]: 0.0443 nM; for `CC1(O)CCOC(C(F)(F)CN2CCNC(=O)c3oc4ccc(C(F)(F)F)cc4c32)C1` (stereo not shown) [Example 66, 1-(2,2-difluoro-2-(4-hydroxy-4-methyltetrahydro-2H-pyran-2-yl)ethyl)-9-(trifluoromethyl)-1,2,3,4-tetrahydro-5H-benzofuro[3,2-e][1,4]diazepin-5-one]: 0.0283 nM.
On the same count and under the same terms, to `CC1(O)CCC(CCN2CC3(CC3)NC(=O)c3oc4ccc(C(F)(F)F)cc4c32)CC1` (single isomer, unassigned) [Example 128] belongs 0.031 nM; to `O=C1NCCN(CCC23CC(CO)(C2)C3)c2c1oc1ccc(C(F)(F)F)cc21` [Example 113], 0.726 nM.
With `O=C1NCCN(CCC2CC(O)CCO2)c2c1oc1ccc(C(F)(F)F)cc21` (stereo not shown) [Example 1], under “read-out: hPim1 Ki”, the Ki came to 0.697 nM.
As for `CC1(C(=O)O)CCC(CCN2CCNC(=O)c3oc4ccc(C(F)(F)F)cc4c32)CC1` (stereo not shown) [Example 93], where the note is “read-out: hPim1 Ki”, the inhibition constant Ki came out at 5.15 nM.
For `C[C@H]1CO[C@H](CCN2CCNC(=O)c3oc4ccc(C(F)(F)F)cc4c32)CO1` [Example 63], under “read-out: hPim1 Ki”, the Ki was found to be 0.452 nM.
Same read-out and setting: to `O=C1NCCN(CCC2CCC(CO)CC2)c2c1oc1ccc(C(F)(F)F)cc21` (stereo not shown) [Example 97] belongs 0.107 nM.
For the compound `CS(=O)(=O)C1CCC(CCN2CCNC(=O)c3oc4ccc(C(F)(F)F)cc4c32)CC1` (stereo not shown) [Example 123], the inhibition constant (Ki) (read-out: hPim1 Ki) came out at 0.784 nM.
The same measure, in the same setting: to `CC1COC(CCN2CCNC(=O)c3oc4ccc(C(F)(F)F)cc4c32)CC1O` (stereo not shown) [Example 3] belongs 0.606 nM.
As to `O=C1NCCN(CCC2CCC(C3(O)CC3)CC2)c2c1oc1ccc(C(F)(F)F)cc21` (stereo not shown) [Example 99], affinity (hPim1 Ki (nM)) was put at a Ki of 0.0764 nM.
